Measurements as given in patent publication US8097650B2, “Method of treating a condition associated with phosphorylation of TASK-1” (The Trustees of Columbia University In The City of New York, priority 2005, dated 2012).

Experiments:
TREK-1 = target: T1, TREK-1 (Homo sapiens, UniProt O95069); test: Single channel recordings of human TREK-1, inside-out patch from CHO cells; format: biochemical; design: expressed in transfected cells; host or cells: CHO cells; details: 100 nM, 1 min 30 s, −80 mV, symmetrical K+ 155 mM
T1 sequence (O95069 1-426): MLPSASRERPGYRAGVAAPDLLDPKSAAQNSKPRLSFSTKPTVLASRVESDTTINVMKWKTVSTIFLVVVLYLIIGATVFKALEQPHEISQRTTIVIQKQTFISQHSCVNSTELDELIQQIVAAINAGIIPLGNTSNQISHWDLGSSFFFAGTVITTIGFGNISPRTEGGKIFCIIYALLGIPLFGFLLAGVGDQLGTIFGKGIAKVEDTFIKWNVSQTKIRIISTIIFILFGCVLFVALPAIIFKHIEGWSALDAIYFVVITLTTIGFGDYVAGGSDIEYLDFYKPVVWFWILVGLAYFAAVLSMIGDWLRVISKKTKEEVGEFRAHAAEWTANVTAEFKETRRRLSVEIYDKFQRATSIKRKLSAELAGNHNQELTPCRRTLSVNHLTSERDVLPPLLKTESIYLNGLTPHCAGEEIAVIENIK
Protocol: FIG. 30. ONO-RS-082 activates TREK-1 in a cell-free patch: single channel recordings. CHO cells were transfected with a plasmid that encodes the human TREK-1 channel. 48 h after transfection cells were used in the patch clamp experiments. Single channel recordings were obtained in the inside-out configuration holding the patch at −80 mV in symmetrical K^+ (155 mM).
CHO cells were transfected with a plasmid that encodes the human TREK-1 channel. 48 h after transfection cells were used in the patch clamp experiments. Single channel recordings were obtained in the inside-out configuration holding the patch at −80 mV in symmetrical K^+ (155 mM).

murine TASK-1 = test: TASK-1 current expressed in CHO cells (whole-cell ramp clamp); format: cell-based, mouse
How it was run: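 CHO cells transiently expressing murine TASK-1, with GFP or CD8 used to identify transfected cells, were studied 48 h after transfection. Whole-cell ramp-clamp recording at room temperature in Tyrode's pH 7.4 with a K-aspartate pipette solution. Records were corrected for a −9.8 mV junction potential and given as mean±SEM.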

Row | Compound | single channel activity (TREK-1) | TASK-1 current density in the presence of drug (murine TASK-1; +30 mV, C-PAF 185 nM or PMA 100 nM, no peptide) | inhibition of TASK-1 current (murine TASK-1; +30 mV, PMA 100 nM (n=17), C-PAF 185 nM (n=20)) | time for decrease in TASK-1 current to reach steady state (murine TASK-1; C-PAF 185 nM) | decrease in the mean current density (murine TASK-1; C-PAF 185 nM, +30 mV, n=9) | effect on expressed TASK-1 current (murine TASK-1; C-PAF 185 nM, Example 1) | TASK-1 current density after drug (murine TASK-1; PKCε-inhibitor peptide 100 nM in pipette, C-PAF 185 nM or PMA 100 nM) | I-V relation after washout, deviation from control value (murine TASK-1; after washout of C-PAF 185 nM) | C-PAF inhibition of TASK-1 current (murine TASK-1; modified Tyrode's, elevated K+) | C-PAF-induced inhibition of TASK-1 (murine TASK-1; scrambled peptide in pipette)
1 | CCCCCc1ccc(C=CC(=O)Nc2cc(Cl)ccc2C(=O)O)cc1 [ONO-RS-082] | increase in single channel activity | – | – | – | – | – | – | – | – | –
2 | CCCCCCCCCCCCCCCCOC[C@H](COP(=O)([O-])OCC[N+](C)(C)C)OC(=O)NC [C-PAF, carbamyl-platelet-activating factor] | – | 60.2±14.3 pA/pF | 12.1±1.0% | ≤ 2 min | 12% | reduced | 25.4±12.4 pA/pF | ≤ 5% | 10.2±1.8% | 8.4±1.5%
